Where two headings read alike, the source gives them in different places.
Legend:
[1] = test system: Candida albicans ATTC 90028; assay: Antifungal susceptibility testing, Candida albicans; type: cell-based
Experimental: (§1) Using standard susceptibility tests, the compounds of the invention were determined to be active against MRSA, C. neoformans and several other bacteria, fungi and protozoa. More specifically, the antibacterial and antifungal testing was carried out in the following manner. Cryptococcus neoformans ATCC 90113 and MRSA were obtained from the American Type Culture Collection (Manassas. Va.). Several others including Candida albicans ATTC 90028, Aspergillus fumigatus ATCC 90906 and Mycobacterium intracellulare (M. intracellulare) ATCC 23086 were also procured. Susceptibility testing was performed using a modified version of the National Committee for Clinical Laboratory Standards method. M. intracellulare was tested using a modified method of Franzblau, et al., J. Clin. Microbiol., 1998, 36, 362-366. DMSO solutions of samples were serially diluted in saline, and transferred in duplicate to 96 well microplates. Microbial suspensions were diluted in the broth to afford desired colony forming units/mL according to the 0.5 McFarland Standard [C. Albicans: either Saboraud Dextrose broth (SDB) or RPMI 1640, C. neoformans: SDB, A fumigatus: either YM broth (for MICS) or RPMI-1640+5% Alamar Blue.] After adding microbial cultures to the sampled afforded a final volume of 200 μL and final test concentration starting with 20 μg/mL, plates were read prior to and after final incubation using either fluorescence at 544ex/590em (M intracellulare, A. fumigatus) using the Polarstar galaxy reader (Biotek Instruments, Vermont). Growth (saline only), solvent and blank (media only) controls were included on each test plate. Drug controls [Ciprofloxacin (ICN Biomedicals, Ohio) for bacteria and Amphotericin B (ICN Biomedicals, Ohio) for fungi] were included in each assay. Percent growth was calculated and plotted versus test concentration to afford IC50 (sample concentration that affords 50% inhibition or growth of the organism). The minimum inhibitory concentration (MIC) was determined by visually inspecting the plate, and is defined as the lowest test concentration that allows no detectable growth (for Almar Blue assays, no color change from blue to pink).

[2] = test system: Cryptococcus neoformans ATCC 90113; assay: Antifungal susceptibility testing, Cryptococcus neoformans; type: cell-based
Experimental: as §1

[3] = test system: Aspergillus fumigatus ATCC 90906; assay: Antifungal susceptibility testing, Aspergillus fumigatus; type: cell-based
Experimental: as §1

MRSA = assay: Antibacterial susceptibility testing, MRSA; type: cell-based, methicillin resistant Staphylococcus aureus; conditions: for MRS IC50 / MRS MFC / MRS MIC: Table 1; for MRSA IC50 / MRSA MFC / MRSA MIC: Table 2
Experimental: as §1

Structure (SMILES) | Ca IC50 ([1]; Table 1) | Ca MFC ([1]; Table 1) | Ca MIC ([1]; Table 1) | Cn IC50 ([2]; Table 1) | Cn MFC ([2]; Table 1) | Cn MIC ([2]; Table 1) | A fu IC50 ([3]; Table 1, Aspergillus fumigatus) | A fu MFC ([3]; Table 1, Aspergillus fumigatus) | A fu MIC ([3]; Table 1, Aspergillus fumigatus) | MRS IC50 (MRSA) | MRS MFC (MRSA) | MRS MIC (MRSA) | further results
C[n+]1cc(Sc2ccc(F)cc2)cc2ccccc21.[I-] [XYZ-III-62] | — ((-) = >20 μg/mL) | — ((-) = >20 μg/mL) | — ((-) = >20 μg/mL) | — ((-) = >20 μg/mL) | — ((-) = >20 μg/mL) | — ((-) = >20 μg/mL) | — ((-) = >20 μg/mL) | — ((-) = >20 μg/mL) | — ((-) = >20 μg/mL) | — ((-) = >20 μg/mL) | — ((-) = >20 μg/mL) | — ((-) = >20 μg/mL) | –
COc1cccc(Sc2cc3ccccc3[n+](CCCCCc3ccccc3)c2)c1.[I-] [XYZ-IV-20] | 7.0 µg/mL | — ((-) = >20 μg/mL) | 20 µg/mL | 1.5 µg/mL | 10 µg/mL | 2.5 µg/mL | 0.55 µg/mL | — ((-) = >20 μg/mL) | 1.3 µg/mL | 0.70 µg/mL | 10 µg/mL | 1.3 µg/mL | –
Brc1ccc(Sc2cc3ccccc3[n+](CCCCCc3ccccc3)c2)cc1.[I-] [XYZ-III-89] | 15 µg/mL | — ((-) = >20 μg/mL) | — ((-) = >20 μg/mL) | 1.0 µg/mL | 10 µg/mL | 2.5 µg/mL | 1.5 µg/mL | — ((-) = >20 μg/mL) | 2.5 µg/mL | 1.5 µg/mL | 10 µg/mL | 2.5 µg/mL | –
Brc1cccc(Sc2cc3ccccc3[n+](CCCCCc3ccccc3)c2)c1.[I-] [XYZ-III-87] | — ((-) = >20 μg/mL) | — ((-) = >20 μg/mL) | — ((-) = >20 μg/mL) | 2.0 µg/mL | 20 µg/mL | 5.0 µg/mL | 3.0 µg/mL | — ((-) = >20 μg/mL) | 10 µg/mL | 2.0 µg/mL | 20 µg/mL | 5.0 µg/mL | –
C[n+]1cc(Sc2ccc(C(F)(F)F)cc2)cc2ccccc21.[I-] [XYZ-III-65] | — ((-) = >20 μg/mL) | — ((-) = >20 μg/mL) | — ((-) = >20 μg/mL) | — ((-) = >20 μg/mL) | — ((-) = >20 μg/mL) | — ((-) = >20 μg/mL) | — ((-) = >20 μg/mL) | — ((-) = >20 μg/mL) | — ((-) = >20 μg/mL) | — ((-) = >20 μg/mL) | — ((-) = >20 μg/mL) | — ((-) = >20 μg/mL) | –
COc1cccc([S+]([O-])c2cc3ccccc3[n+](CCCCCc3ccccc3)c2)c1.[I-] (stereo not shown) [XYZ-V-23] | — ((-) = >20 μg/mL) | — ((-) = >20 μg/mL) | — ((-) = >20 μg/mL) | – | — ((-) = >20 μg/mL) | — ((-) = >20 μg/mL) | — ((-) = >20 μg/mL) | — ((-) = >20 μg/mL) | — ((-) = >20 μg/mL) | 2.50 µg/mL | — ((-) = >20 μg/mL) | 10 µg/mL | –
[I-].[O-][S+](c1cc(C(F)(F)F)cc(C(F)(F)F)c1)c1cc2ccccc2[n+](CCCCCc2ccccc2)c1 (stereo not shown) [XYZ-V-13] | 10 µg/mL | 20 µg/mL | 20 µg/mL | 3.0 µg/mL | 20 µg/mL | 5.0 µg/mL | — ((-) = >20 μg/mL) | — ((-) = >20 μg/mL) | — ((-) = >20 μg/mL) | 0.20 µg/mL | 10 µg/mL | 0.63 µg/mL | –
[I-].[O-][S+](c1cc2ccccc2[n+](CCCCCc2ccccc2)c1)c1ccccc1C(F)(F)F (stereo not shown) [XYZ-IV-90] | 15 µg/mL | — ((-) = >20 μg/mL) | — ((-) = >20 μg/mL) | 5.5 µg/mL | — ((-) = >20 μg/mL) | 20 µg/mL | — ((-) = >20 μg/mL) | — ((-) = >20 μg/mL) | — ((-) = >20 μg/mL) | 0.25 µg/mL | 10 µg/mL | 0.63 µg/mL | –
COc1ccccc1Sc1cc2ccccc2[n+](CCCCCc2ccccc2)c1.[I-] [XYZ-IV-18] | 3.0 µg/mL | — ((-) = >20 μg/mL) | 10 µg/mL | 0.85 µg/mL | 5.0 µg/mL | 2.5 µg/mL | 0.09 µg/mL | 10 µg/mL | 1.3 µg/mL | 0.25 µg/mL | 5.0 µg/mL | 0.63 µg/mL | –
c1ccc(Nc2cc3ccccc3[n+](CCCCCC3CCCCC3)c2)cc1 [JRE-3-19-1] | – | – | – | – | – | – | – | – | – | – | – | – | IC50 ([1]; ATTC90028, Table 2, read-out: Ca IC50): 1 µg/mL; MFC ([1]; ATTC90028, Table 2, read-out: Ca MFC): 13 µg/mL; MIC ([1]; ATTC90028, Table 2, read-out: Ca MIC): 3.1 µg/mL; IC50 ([2]; ATCC90113, Table 2, read-out: Cn IC50): 0.55 µg/mL; MFC ([2]; ATCC90113, Table 2, read-out: Cn MFC): 6.3 µg/mL; MIC ([2]; ATCC90113, Table 2, read-out: Cn MIC): 0.78 µg/mL; A fu MFC [3]: 25 µg/mL; A fu MIC [3]: 1.6 µg/mL; IC50 ([3]; ATCC90906, Table 2, Aspergillus fumigatus, read-out: A fu IC50): 1 µg/mL; IC50 (MRSA; Staphylococcus aureus, Table 2, read-out: MRSA IC50): 0.85 µg/mL; MFC (MRSA; Staphylococcus aureus, Table 2, read-out: MRSA MFC): 6.3 µg/mL; MIC (MRSA; Staphylococcus aureus, Table 2, read-out: MRSA MIC): 1.6 µg/mL
COc1ccc(Sc2cc3ccccc3[n+](C)c2)cc1.[I-] [XYZ-III-71] | — ((-) = >20 μg/mL) | — ((-) = >20 μg/mL) | — ((-) = >20 μg/mL) | — ((-) = >20 μg/mL) | — ((-) = >20 μg/mL) | — ((-) = >20 μg/mL) | — ((-) = >20 μg/mL) | — ((-) = >20 μg/mL) | — ((-) = >20 μg/mL) | — ((-) = >20 μg/mL) | — ((-) = >20 μg/mL) | — ((-) = >20 μg/mL) | –
Clc1ccccc1Sc1cc2ccccc2[n+](CCCCCc2ccccc2)c1.[I-] [XYZ-III-74] | — ((-) = >20 μg/mL) | — ((-) = >20 μg/mL) | — ((-) = >20 μg/mL) | 2.0 µg/mL | 20 µg/mL | 5.0 µg/mL | 0.70 µg/mL | — ((-) = >20 μg/mL) | 2.5 µg/mL | 1.0 µg/mL | 10 µg/mL | 2.5 µg/mL | –
C[n+]1cc(Nc2ccccc2Cl)cc2ccccc21.[I-] [JRE-2-42-1] | – | – | – | – | – | – | – | – | – | – | – | – | Ca IC50 ([1]; Table 2): — ((-) = >20 μg/mL); Ca MFC ([1]; Table 2): — ((-) = >20 μg/mL); Ca MIC ([1]; Table 2): — ((-) = >20 μg/mL); Cn IC50 ([2]; Table 2): — ((-) = >20 μg/mL); Cn MFC ([2]; Table 2): — ((-) = >20 μg/mL); Cn MIC ([2]; Table 2): — ((-) = >20 μg/mL); A fu IC50 ([3]; Table 2, Aspergillus fumigatus): — ((-) = >20 μg/mL); MRSA IC50 (MRSA): — ((-) = >20 μg/mL); MRSA MFC (MRSA): — ((-) = >20 μg/mL); MRSA MIC (MRSA): — ((-) = >20 μg/mL)
COc1ccc(Nc2cc3ccccc3[n+](CCCCCC3CCCCC3)c2)cc1.[I-] [JRE-3-45-1] | – | – | – | – | – | – | – | – | – | – | – | – | Ca IC50 ([1]; Table 2): — ((-) = >20 μg/mL); Ca MFC ([1]; Table 2): — ((-) = >20 μg/mL); Ca MIC ([1]; Table 2): — ((-) = >20 μg/mL); Cn IC50 ([2]; Table 2): — ((-) = >20 μg/mL); Cn MFC ([2]; Table 2): — ((-) = >20 μg/mL); Cn MIC ([2]; Table 2): — ((-) = >20 μg/mL); A fu IC50 ([3]; Table 2, Aspergillus fumigatus): — ((-) = >20 μg/mL); MRSA IC50 (MRSA): — ((-) = >20 μg/mL); MRSA MFC (MRSA): — ((-) = >20 μg/mL); MRSA MIC (MRSA): — ((-) = >20 μg/mL)
[I-].[O-][S+](c1cc2ccccc2[n+](CCCCCc2ccccc2)c1)c1ccccc1Cl (stereo not shown) [XYZ-V-9] | — ((-) = >20 μg/mL) | — ((-) = >20 μg/mL) | — ((-) = >20 μg/mL) | 10 µg/mL | — ((-) = >20 μg/mL) | 20 µg/mL | — ((-) = >20 μg/mL) | — ((-) = >20 μg/mL) | — ((-) = >20 μg/mL) | 0.75 µg/mL | — ((-) = >20 μg/mL) | 2.5 µg/mL | –
